# Source: US7727731B2, “Potent, selective and non toxic c-kit inhibitors” (AB Science, priority 2001, dated 2010)
# How the values were obtained:
# [1] = target: T1, FMA3 (deletion 7aa. juxtamembrane) (Mus musculus, UniProt P05532, DEL577-583); test: Proliferation test, FMA3 cells; assay type: cell-based; conditions: doses inferior to toxicity level (<10 μM)
# T1 construct: endogenous in cells; host or cells: FMA3 mouse mastocytoma cells
# Description: (§1) Juxtamembrane Mutations • Ba/F3-KitΔ27 (transfected juxtamembrane mutation—identified at the Laboratory) • Ba/F3-KitG559 (transfected juxtamembrane mutation) • FMA3 (deletion 7aa. juxtamembrane identified in a mouse mastocytome)
# [2] = target: T2, SCF activated c-kit wild (Mus musculus, UniProt P05532); test: Proliferation test, Ba/F3 Kit cells with SCF; assay type: cell-based, murine; conditions: doses inferior to toxicity level (<10 μM)
# T2 construct: expressed in transfected cells; host or cells: Ba/F3 (murine, IL-3 dependent)
# T2 sequence (P05532 25-975 isoform P05532-2 limits assumed): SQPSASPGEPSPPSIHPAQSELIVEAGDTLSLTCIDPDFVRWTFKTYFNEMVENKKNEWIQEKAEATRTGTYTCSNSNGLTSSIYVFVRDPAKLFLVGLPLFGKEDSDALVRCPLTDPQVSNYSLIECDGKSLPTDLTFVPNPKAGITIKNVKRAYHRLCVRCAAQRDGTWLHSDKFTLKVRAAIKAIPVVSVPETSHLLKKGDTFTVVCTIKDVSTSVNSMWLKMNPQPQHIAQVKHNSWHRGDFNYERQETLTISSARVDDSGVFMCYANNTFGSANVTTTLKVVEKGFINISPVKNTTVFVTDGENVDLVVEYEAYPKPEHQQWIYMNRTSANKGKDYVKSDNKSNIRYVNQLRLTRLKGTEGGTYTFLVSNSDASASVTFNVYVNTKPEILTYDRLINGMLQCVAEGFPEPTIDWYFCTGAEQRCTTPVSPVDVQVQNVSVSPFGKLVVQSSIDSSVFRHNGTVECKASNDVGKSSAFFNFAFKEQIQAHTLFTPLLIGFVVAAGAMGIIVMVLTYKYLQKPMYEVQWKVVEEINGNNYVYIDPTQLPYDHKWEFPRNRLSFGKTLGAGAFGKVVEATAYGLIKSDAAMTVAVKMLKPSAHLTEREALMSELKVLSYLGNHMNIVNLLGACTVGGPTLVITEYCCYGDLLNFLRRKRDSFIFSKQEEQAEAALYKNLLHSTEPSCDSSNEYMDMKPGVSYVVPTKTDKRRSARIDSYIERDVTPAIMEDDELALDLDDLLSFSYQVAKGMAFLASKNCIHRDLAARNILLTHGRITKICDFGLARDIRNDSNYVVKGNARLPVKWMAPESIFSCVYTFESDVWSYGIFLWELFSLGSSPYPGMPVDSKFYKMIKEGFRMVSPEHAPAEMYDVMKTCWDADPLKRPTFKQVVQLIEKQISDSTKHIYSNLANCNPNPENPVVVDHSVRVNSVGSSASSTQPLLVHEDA
# Procedure: (§2) First step: cellular proliferation to select molecules which are able to slowdown or stop cellular growth induced by c-kit activation. Here, SCF activated c-kit is used. Then, the effect of these molecules is analyzed by biochemistry techniques (immuno precipitations and western-blots), so that to determine if the inhibitor acts directly on the receptor c-kit or on other proteins, which are mediators of Kit signals. In a second step, a subset of molecules identified is selected in a cellular test on IL-3 dependant cells cultured in presence of IL-3. molecules that are not toxic are identified as potent specific c-kit inhibitors for a use in therapy.
# (§3) Two types of cell lines carrying wild or mutated forms of c-kit are available lines derived from mastocytomes and the Ba/F3 cell model (cells depending on IL-3). In the Ba/F3 cells, the expression of c-kit removes the dependence vis-a-vis IL-3. Consequently, cDNA of wild or mutated murine c-kit has been introduced and these cells proliferate either in presence of SCF in case of c-kit wild or in absence of any growth factor in case of activated mutant c-kit.
# Preparation of cell lines • Ba/F3-Kit: Ba/F3 cells in which Kit gene, mutated or wild, has been introduced. They proliferate either in presence of Kit ligand (SCF) or in presence of IL-3. […]
# [3] = test system: 814 mutant c-kit; test: c-kit phosphorylation after immunoprecipitation, 814 mutant; assay type: cell-based
# Procedure: as §2
# (§4) The first step of c-kit activation consists of receptor phosphorylation on tyrosine residues. Thus, the phosphorylation state is a measure of receptor activation. By using specific antibodies, c-kit has been isolated by immunoprecipitation and c-kit phosphorylation has been determined using common procedures.
# [4] = target: c-kit wild (Mus musculus, UniProt P05532); test: c-kit phosphorylation after immunoprecipitation, c-kit wild; assay type: cell-based
# c-kit wild, sequence (P05532 25-975 isoform P05532-2 limits assumed): as above
# Procedure: as §2, §4
# [5] = test system: c-kit bearing juxtamembrane mutations; test: c-kit phosphorylation after immunoprecipitation, juxtamembrane mutants; assay type: cell-based
# c-kit bearing juxtamembrane mutations, sequence (P05532 592-939 limits assumed, change not shown): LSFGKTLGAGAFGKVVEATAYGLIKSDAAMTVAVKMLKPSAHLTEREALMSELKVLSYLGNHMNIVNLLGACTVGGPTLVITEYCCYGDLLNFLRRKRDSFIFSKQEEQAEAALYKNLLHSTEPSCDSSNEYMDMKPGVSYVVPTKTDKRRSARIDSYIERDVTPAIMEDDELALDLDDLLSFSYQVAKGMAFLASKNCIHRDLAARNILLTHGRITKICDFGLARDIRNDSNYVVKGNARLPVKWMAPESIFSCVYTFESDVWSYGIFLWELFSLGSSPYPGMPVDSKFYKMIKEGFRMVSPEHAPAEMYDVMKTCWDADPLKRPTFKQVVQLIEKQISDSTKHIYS
# Procedure: as §2, §4
# [6] = test system: mutant in a human mast cell leukemia cell line (HMC-1, expressing a juxtamembrane mutation); conditions: cited from earlier work
# [7] = target: T3, c-kit carrying the 814 mutation (Mus musculus, UniProt P05532, D818V); test: Proliferation test, IC2 D814V cells; assay type: cell-based, murine; conditions: doses inferior to toxicity level (<10 μM)
# T3 construct: expressed in transfected cells; host or cells: IC2 murine mast cell line
# T3 sequence (P05532 25-975 isoform P05532-2 D814V limits assumed): as the sequence (P05532 25-975 isoform P05532-2 limits assumed) above, with D790V counted along it
# Procedure: We have tested 37 compounds that are indolinone derivatives in different cell lines and successive screening to select interesting inhibitors. • Method: select the compounds which are effectively c-kit inhibitors (Table 1) Each compound has been tested at a high dose (10 μM) on cell expressing • c-kit carrying the 814 mutation • SCF activated c-kit wild • control cells cultivated in IL-3.
# The effect of the 21 inhibitors has been tested at decreasing concentrations (10-10^−1-10^−2 μM) in order to reveal compounds that are able at 1 μM to inhibit proliferation of the IC2 D814V line while preserving response to another stimulus (IL-3, toxicity control).
# The nine compounds selected have been tested at narrower doses: between 0.1 and 1 μM. At this stage, the three most efficient compounds at lower doses have been selected (≦0.6 μM): 11, 14 and 35.
# (§5) Table set up according to CPM (Counts Per Minutes) percentage obtained after proliferation in absence of inhibitors as 100% (% CPM>80=−−/50<% CPM<80=−/20<% CPM <50=+/5<% CPM<20=+/%-CPM<5=++). All experiments were done in triplicate.
# [8] = test system: c-kit carrying one of the juxtamembrane mutations (Δ27); test: Proliferation test, Ba/F3 Δ27 cells; assay type: cell-based, murine; conditions: doses inferior to toxicity level (<10 μM)
# Description: as §3, §1
# Cells expressing c-kit carrying one of the juxtamembrane mutations (Δ27) were also used as a control.
# as §5
# T1 sequence (P05532 with tags, fused parts or gaps isoform P05532-2 DEL573-579): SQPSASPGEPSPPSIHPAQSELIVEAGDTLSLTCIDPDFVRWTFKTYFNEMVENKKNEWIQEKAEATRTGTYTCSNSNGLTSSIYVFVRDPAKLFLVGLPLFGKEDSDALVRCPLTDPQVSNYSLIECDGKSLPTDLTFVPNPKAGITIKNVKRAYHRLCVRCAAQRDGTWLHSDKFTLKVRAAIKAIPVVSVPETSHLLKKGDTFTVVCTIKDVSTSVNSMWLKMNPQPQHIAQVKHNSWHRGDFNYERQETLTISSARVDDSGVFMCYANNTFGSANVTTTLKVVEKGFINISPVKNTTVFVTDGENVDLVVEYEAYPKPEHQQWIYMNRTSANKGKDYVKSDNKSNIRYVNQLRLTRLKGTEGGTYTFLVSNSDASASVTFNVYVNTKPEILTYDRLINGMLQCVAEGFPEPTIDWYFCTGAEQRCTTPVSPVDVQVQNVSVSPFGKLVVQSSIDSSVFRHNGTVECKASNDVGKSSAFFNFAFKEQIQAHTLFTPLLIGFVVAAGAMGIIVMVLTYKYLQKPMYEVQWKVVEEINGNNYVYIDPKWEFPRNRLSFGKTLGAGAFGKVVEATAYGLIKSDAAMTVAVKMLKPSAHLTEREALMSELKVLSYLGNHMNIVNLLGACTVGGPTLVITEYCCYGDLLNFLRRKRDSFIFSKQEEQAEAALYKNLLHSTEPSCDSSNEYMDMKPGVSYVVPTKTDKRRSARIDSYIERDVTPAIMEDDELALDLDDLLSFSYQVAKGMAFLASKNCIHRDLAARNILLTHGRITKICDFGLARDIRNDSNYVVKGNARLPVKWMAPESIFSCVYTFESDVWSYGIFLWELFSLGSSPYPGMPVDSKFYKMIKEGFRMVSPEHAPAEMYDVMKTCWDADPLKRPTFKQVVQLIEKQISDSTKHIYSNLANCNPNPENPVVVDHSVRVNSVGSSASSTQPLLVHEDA
substance,measurement,setting,value
STI 571,"Effect on proliferation, juxtamembrane mutation FMA3",[1],inhibits totally the proliferation
same,Effect on proliferation depending on c-kit wild,[2],inhibits totally the proliferation
same,Phosphorylation of the 814 mutant c-kit,[3],is not reduced
same,Phosphorylation of c-kit wild,[4],considerably reduces the phosphorylation
same,Phosphorylation of c-kit bearing juxtamembrane mutations,[5],considerably reduces the phosphorylation
same,Inhibitory effect on kinase activity of HMC-1 mutant compared with ligand-dependent activation of the wild-type receptor,[6],more potent inhibitory effect
same,"Effect on proliferation of cells carrying 814 mutation, IC2",[7],not the proliferation of cells carrying 814 mutation
same,"Effect on proliferation, juxtamembrane mutation Δ27",[8],inhibits totally the proliferation
